Earlier results in patent US20050048573A1, “PDE5A crystal structure and uses” (Plexxikon, Inc., priority 2003, published 2005).
pKd: −log10 of the molar value.

Biological target: PDE5 (Bos taurus, UniProt Q28156)
Details: allosteric sites; read-out: KD of PDE5 for binding cGMP in the allosteric sites

Nc1nc2c(ncn2[C@@H]2O[C@@H]3COP(=O)(O)O[C@H]3[C@H]2O)c(=O)[nH]1 [cGMP]
pKd: ~6.70
